Patent US12297194B2, “N2-phenylpyrimidine-2,4-diamine compounds, and preparation methods and methods of use thereof” (BRIDGE BIOTHERAPEUTICS, INC., priority 2021, dated 2025)

Experiments:
Format in all cases: cell-based, murine
[1] = biological target: Ba/F3 EGFR L858R/C797S mutants (Homo sapiens, UniProt P00533, C797S/L858R, cells depend on it); experiment: CellTiter-Glo cell viability, Ba/F3 EGFR L858R/C797S cells; conditions: 72 hours, read-out: Ba/F3 EGFR mutant cell (IC50, nM) L/C
Procedure: (§1) In order to evaluate an inhibitory ability on wild-type Ba/F3 EGFR and Ba/F3 EGFR mutations in Ba/F3 cell lines by the compounds of Formula 1, the experiment was carried out as described below.
(§2) The measurement of activities on Ba/F3 cells harboring wild-type EGFR and EGFR mutants by the compounds of the present invention were determined utilizing the CELLTITER-GLO™ system from Promega, as follows. The CELLTITER-GLO™ assay is a method for measuring the ATP present in cells to determine the cell viability. Ba/F3 EGFR wild-type and Ba/F3 EGFR L858R/C797S (L/C), Ba/F3 EGFR L858R/T790M/C797S (L/T/C), Ba/F3 EGFR Del19/T790M (D/T), Ba/F3 EGFR Del19/C797S (D/C), Ba/F3 EGFR Del19/T790M/C797S (D/T/C) mutant cell lines were maintained in RPMI1640, containing […], 1% penicillin-streptomycin, […] puromycin. Cells were grown in a humidified incubator at 37° C. with […].
(§3) The analysis of an EGFR inhibitory activity by the compounds was carried out in accordance with the analysis reaction recipe below.
(§4) 2500 cells/90 μL were seeded in 96 well cell culture plate, and after 24 hours, treated with the compounds represented by Formula 1 in concentrations of 0, 0.3, 0.9, 2.7, 8.2, 24.7, 74.1, 222.2, 666.7, 2000 (nM). After the reaction of 72 hours, the plate was incubated for 30 minutes at ambient temperature, and then, was further treated with 100 μL of the CELLTITER-GLO™ reagent and was shaken for 10 minutes at ambient temperature. Finally, measurement of the luminescence values were obtained using the SPECTRAMAX™ iD3 (Molecular Devices), and the IC50 values of the compound were analyzed using the GraphPad Prism program (version 9.0.2, GraphPad Software, Inc.).

[2] = biological target: Ba/F3 EGFR Del19/C797S mutants (Homo sapiens, UniProt P00533, C797S, cells depend on it, form not given); experiment: CellTiter-Glo cell viability, Ba/F3 EGFR Del19/C797S cells; conditions: 72 hours, read-out: Ba/F3 EGFR mutant cell (IC50, nM) D/C
Sequence of Ba/F3 EGFR Del19/C797S mutants (P00533 with tags, fused parts or gaps DEL746-750/C797S, form open): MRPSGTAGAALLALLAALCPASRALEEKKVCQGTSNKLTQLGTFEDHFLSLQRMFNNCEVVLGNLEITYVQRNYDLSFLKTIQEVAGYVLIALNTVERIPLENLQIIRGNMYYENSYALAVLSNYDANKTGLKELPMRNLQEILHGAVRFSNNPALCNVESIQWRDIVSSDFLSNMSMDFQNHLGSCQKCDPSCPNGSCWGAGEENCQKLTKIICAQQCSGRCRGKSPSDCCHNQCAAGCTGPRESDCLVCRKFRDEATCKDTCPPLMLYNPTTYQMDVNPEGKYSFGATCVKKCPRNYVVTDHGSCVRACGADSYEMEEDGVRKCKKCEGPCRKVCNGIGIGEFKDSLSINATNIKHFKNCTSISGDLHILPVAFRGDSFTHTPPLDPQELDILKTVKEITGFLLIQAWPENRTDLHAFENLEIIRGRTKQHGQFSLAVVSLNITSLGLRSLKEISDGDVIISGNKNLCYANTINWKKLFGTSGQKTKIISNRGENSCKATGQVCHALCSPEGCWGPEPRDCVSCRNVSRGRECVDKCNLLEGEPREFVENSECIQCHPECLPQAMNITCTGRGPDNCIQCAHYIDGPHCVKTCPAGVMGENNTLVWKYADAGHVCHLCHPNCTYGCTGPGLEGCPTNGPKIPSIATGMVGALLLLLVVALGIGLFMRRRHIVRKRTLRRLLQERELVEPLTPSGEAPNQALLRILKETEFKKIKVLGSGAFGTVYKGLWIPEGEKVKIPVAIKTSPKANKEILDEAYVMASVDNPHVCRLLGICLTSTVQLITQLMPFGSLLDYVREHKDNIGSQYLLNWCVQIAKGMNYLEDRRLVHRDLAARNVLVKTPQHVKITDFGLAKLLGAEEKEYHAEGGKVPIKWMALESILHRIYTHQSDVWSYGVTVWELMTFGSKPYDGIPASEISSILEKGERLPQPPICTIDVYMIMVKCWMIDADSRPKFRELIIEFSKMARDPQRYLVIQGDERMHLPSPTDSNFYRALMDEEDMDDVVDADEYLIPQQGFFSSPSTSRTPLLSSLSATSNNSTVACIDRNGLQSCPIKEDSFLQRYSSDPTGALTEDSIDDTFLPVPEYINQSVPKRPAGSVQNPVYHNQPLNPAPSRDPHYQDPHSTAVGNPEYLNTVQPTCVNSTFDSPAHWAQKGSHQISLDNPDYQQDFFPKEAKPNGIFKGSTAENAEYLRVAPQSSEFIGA
Procedure: as §1, §2, §3, §4

[3] = biological target: Ba/F3 EGFR Wild-type (Homo sapiens, UniProt P00533); experiment: CellTiter-Glo cell viability, Ba/F3 EGFR wild-type cells; conditions: 72 hours, read-out: Ba/F3 EGFR mutant cell (IC50, nM) WT
Procedure: as §1, §2, §3, §4

[4] = biological target: Ba/F3 EGFR L858R/T790M/C797S mutants (Homo sapiens, UniProt P00533, T790M/C797S/L858R, cells depend on it); experiment: CellTiter-Glo cell viability, Ba/F3 EGFR L858R/T790M/C797S cells; conditions: 72 hours, read-out: Ba/F3 EGFR mutant cell (IC50, nM) L/T/C
Sequence of Ba/F3 EGFR L858R/T790M/C797S mutants (P00533 whole entry T790M/C797S/L858R): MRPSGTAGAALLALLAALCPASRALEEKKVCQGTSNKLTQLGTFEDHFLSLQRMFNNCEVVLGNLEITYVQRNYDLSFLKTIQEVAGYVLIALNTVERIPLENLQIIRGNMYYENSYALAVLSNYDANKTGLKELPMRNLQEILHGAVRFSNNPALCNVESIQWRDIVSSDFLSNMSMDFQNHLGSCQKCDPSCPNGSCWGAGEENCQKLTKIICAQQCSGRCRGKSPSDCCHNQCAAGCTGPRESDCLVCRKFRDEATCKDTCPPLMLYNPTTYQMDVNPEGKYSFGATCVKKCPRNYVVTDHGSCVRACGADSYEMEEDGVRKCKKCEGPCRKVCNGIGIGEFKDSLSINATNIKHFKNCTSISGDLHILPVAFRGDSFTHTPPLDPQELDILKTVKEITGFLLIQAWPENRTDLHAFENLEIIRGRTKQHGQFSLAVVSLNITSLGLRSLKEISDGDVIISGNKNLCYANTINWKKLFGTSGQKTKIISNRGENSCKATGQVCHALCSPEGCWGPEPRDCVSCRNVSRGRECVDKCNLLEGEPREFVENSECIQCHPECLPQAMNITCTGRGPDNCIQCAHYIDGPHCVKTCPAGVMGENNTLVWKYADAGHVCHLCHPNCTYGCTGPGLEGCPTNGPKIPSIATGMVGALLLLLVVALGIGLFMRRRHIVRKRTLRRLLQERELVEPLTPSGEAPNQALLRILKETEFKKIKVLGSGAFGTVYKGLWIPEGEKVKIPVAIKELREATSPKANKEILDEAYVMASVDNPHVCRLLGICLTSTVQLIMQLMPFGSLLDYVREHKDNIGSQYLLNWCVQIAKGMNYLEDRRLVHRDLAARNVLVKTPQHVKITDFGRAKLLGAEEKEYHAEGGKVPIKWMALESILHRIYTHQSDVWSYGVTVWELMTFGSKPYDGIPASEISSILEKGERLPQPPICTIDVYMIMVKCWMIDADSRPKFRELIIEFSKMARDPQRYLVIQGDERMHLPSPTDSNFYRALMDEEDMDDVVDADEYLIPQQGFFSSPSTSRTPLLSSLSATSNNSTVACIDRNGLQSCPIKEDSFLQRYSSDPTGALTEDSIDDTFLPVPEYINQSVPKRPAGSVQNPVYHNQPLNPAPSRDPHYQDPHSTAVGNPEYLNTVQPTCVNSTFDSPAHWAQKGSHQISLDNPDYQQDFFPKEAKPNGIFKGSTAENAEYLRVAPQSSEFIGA
Procedure: as §1, §2, §3, §4

[5] = biological target: Ba/F3 EGFR Del19/T790M mutants (Homo sapiens, UniProt P00533, T790M, cells depend on it, form not given); experiment: CellTiter-Glo cell viability, Ba/F3 EGFR Del19/T790M cells; conditions: 72 hours, read-out: Ba/F3 EGFR mutant cell (IC50, nM) D/T
Sequence of Ba/F3 EGFR Del19/T790M mutants (P00533 with tags, fused parts or gaps DEL746-750/T790M, form open): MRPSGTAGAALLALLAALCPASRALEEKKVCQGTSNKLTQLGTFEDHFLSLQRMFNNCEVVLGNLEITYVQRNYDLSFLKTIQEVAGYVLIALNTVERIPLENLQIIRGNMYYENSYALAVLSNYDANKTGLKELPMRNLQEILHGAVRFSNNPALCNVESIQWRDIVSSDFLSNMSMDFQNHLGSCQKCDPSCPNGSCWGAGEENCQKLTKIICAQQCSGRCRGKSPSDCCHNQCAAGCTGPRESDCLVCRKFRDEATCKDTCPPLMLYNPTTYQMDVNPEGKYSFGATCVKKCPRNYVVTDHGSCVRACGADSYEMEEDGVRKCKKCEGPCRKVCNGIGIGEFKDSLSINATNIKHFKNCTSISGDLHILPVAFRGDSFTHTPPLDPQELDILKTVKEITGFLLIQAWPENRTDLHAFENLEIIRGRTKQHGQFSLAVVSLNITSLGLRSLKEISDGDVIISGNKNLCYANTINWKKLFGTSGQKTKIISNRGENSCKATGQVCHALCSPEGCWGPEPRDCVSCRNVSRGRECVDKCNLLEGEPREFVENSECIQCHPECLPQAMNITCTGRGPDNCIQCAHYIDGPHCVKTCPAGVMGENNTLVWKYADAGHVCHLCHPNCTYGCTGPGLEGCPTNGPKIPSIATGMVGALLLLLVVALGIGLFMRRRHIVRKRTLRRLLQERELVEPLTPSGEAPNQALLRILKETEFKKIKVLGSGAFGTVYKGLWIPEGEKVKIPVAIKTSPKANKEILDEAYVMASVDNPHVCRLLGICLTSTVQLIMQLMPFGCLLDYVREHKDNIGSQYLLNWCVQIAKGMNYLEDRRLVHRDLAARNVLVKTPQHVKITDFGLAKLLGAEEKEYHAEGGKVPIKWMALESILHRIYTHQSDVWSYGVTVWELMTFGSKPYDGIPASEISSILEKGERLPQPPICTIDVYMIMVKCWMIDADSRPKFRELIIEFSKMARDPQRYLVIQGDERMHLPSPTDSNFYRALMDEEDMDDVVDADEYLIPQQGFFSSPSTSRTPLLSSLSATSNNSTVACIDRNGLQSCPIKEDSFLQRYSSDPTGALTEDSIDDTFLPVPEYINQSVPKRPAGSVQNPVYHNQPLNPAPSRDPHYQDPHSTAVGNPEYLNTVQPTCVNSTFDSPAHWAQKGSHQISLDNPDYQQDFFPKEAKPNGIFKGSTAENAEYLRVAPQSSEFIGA
Procedure: as §1, §2, §3, §4

[6] = biological target: Ba/F3 EGFR Del19/T790M/C797S mutants (Homo sapiens, UniProt P00533, T790M/C797S, cells depend on it, form not given); experiment: CellTiter-Glo cell viability, Ba/F3 EGFR Del19/T790M/C797S cells; conditions: 72 hours, read-out: Ba/F3 EGFR mutant cell (IC50, nM) D/T/C
Procedure: as §1, §2, §3, §4

Sequence of Ba/F3 EGFR L858R/C797S mutants (P00533 whole entry C797S/L858R): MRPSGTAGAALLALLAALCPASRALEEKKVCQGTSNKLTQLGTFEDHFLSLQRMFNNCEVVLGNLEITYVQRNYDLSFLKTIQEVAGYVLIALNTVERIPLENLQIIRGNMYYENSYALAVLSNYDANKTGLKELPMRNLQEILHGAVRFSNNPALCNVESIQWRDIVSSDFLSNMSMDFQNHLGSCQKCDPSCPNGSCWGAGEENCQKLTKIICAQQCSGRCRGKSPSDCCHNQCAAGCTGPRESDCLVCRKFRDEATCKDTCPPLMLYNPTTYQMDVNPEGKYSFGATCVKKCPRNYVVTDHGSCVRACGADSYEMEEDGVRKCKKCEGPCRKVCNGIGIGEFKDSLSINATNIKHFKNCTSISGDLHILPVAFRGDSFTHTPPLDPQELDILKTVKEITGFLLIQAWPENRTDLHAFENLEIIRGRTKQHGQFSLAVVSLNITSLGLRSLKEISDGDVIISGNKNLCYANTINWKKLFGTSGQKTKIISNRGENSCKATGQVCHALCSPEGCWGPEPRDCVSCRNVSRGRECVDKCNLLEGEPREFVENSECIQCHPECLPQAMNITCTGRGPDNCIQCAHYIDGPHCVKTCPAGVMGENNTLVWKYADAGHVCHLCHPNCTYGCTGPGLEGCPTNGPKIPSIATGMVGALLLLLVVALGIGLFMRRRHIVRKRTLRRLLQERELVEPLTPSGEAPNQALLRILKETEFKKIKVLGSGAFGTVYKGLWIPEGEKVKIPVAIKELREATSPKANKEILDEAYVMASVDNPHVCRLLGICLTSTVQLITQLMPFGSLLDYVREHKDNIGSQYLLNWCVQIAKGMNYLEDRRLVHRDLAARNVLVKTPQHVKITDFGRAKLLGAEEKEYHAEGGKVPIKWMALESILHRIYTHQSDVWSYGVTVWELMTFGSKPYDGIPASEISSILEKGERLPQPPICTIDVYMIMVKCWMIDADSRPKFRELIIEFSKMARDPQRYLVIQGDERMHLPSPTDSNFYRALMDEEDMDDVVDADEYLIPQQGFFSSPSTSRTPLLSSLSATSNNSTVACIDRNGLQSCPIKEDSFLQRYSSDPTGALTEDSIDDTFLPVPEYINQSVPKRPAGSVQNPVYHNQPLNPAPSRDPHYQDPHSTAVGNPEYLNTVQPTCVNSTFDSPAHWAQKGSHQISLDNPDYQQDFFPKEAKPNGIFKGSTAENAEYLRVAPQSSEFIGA

SMILES | GI50 [1] | GI50 [2] | GI50 [3] | GI50 [4] | GI50 [5] | GI50 [6]
CCc1cc(Nc2ncc(Cl)c(Nc3ccc4c(c3NS(C)(=O)=O)OCCO4)n2)c(OC)cc1N1CCC(N2CCOCC2)CC1 [Example C15, N-(6-((5-chloro-2-((5-ethyl-2-methoxy-4-(4-morpholinopiperidin-1-yl)phenyl)amino)pyrimidin-4-yl)amino)-2,3-dihydrobenzo[b][1,4]dioxin-5-yl)methanesulfonamide] | 44 nM | 13 nM | 638 nM | 30 nM | 8 nM | 14 nM
COc1ccc(Nc2nc(Nc3cc(C)c(N4CCC(N5CCN(C)CC5)CC4)cc3OC)ncc2Cl)c(NS(C)(=O)=O)c1 [Example C26, N-(2-((5-chloro-2-((2-methoxy-5-methyl-4-(4-(4-methylpiperazin-1-yl)piperidin-1-yl)phenyl)amino)pyrimidin-4-yl)amino)-5-methoxyphenyl)methanesulfonamide] | 35 nM | 7 nM | 421 nM | 54 nM | 8 nM | 5 nM
CCc1cc(Nc2ncc(Br)c(Nc3ccc4c(c3N(C)S(C)(=O)=O)OCCO4)n2)c(OC)cc1N1CCC(N2CCN(C)CC2)CC1 [Example C28, N-(6-((5-bromo-2-((5-ethyl-2-methoxy-4-(4-(4-methylpiperazin-1-yl)piperidin-1-yl)phenyl)amino)pyrimidin-4-yl)amino)-2,3-dihydrobenzo[b][1,4]dioxin-5-yl)-N-methylmethanesulfonamide] | 68 nM | 7 nM | 699 nM | 13 nM | 10 nM | 10 nM
CCCc1cc(Nc2ncc(Cl)c(Nc3cccc(OC)c3N(C)S(C)(=O)=O)n2)c(OC)cc1N1CCC(N(C)C)CC1 [Example C31, N-(2-((5-chloro-2-((4-(4-(dimethylamino)piperidin-1-yl)-2-methoxy-5-propylphenyl)amino)pyrimidin-4-yl)amino)-6-methoxyphenyl)-N-methylmethanesulfonamide] | 89 nM | 10 nM | 698 nM | 68 nM | 22 nM | 20 nM
CCc1cc(Nc2ncc(Br)c(Nc3ccc4nccnc4c3N(C)S(C)(=O)=O)n2)c(OC(C)C)cc1C1CCN(C)CC1 [Example B32, N-(6-((5-bromo-2-((5-ethyl-2-isopropoxy-4-(1-methylpiperidin-4-yl)phenyl)amino)pyrimidin-4-yl)amino)quinoxalin-5-yl)-N-methylmethanesulfonamide] | 200 nM | 172 nM | 851 nM | 83 nM | 154 nM | 29 nM
COc1cc(N2CCC(N3CCN(C)CC3)CC2)ccc1Nc1ncc(Cl)c(Nc2ccc3scnc3c2NS(C)(=O)=O)n1 [Example C8, N-(5-((5-chloro-2-((2-methoxy-4-(4-(4-methylpiperazin-1-yl)piperidin-1-yl)phenyl)amino)pyrimidin-4-yl)amino)benzo[d]thiazol-4-yl)methanesulfonamide] | 316 nM | 210 nM | 804 nM | 308 nM | 94 nM | 170 nM
COc1cc(N2CCNCC2)ccc1Nc1ncc(Cl)c(Nc2cccc(OC)c2NS(C)(=O)=O)n1 [Example C6, N-(2-((5-chloro-2-((2-methoxy-4-(piperazin-1-yl)phenyl)amino)pyrimidin-4-yl)amino)-6-methoxyphenyl)methanesulfonamide] | 305 nM | 106 nM | 626 nM | 596 nM | 268 nM | 222 nM
CCc1cc(Nc2ncc(Br)c(N(C)c3ccc4nccnc4c3N(C)S(C)(=O)=O)n2)c(OC)cc1N1CCC(N(C)C)CC1 [Example B19, N-(6-((5-bromo-2-((4-(4-(dimethylamino)piperidin-1-yl)-5-ethyl-2-methoxyphenyl)amino)pyrimidin-4-yl)(methyl)amino)quinoxalin-5-yl)-N-methylmethane sulfonamide] | 182 nM | 36 nM | 1410 nM | 82 nM | 20 nM | 25 nM
COc1cc(C2=CCNCC2)c(C)cc1Nc1ncc(Br)c(Nc2ccc3nccnc3c2NS(C)(=O)=O)n1 [Example D2] | 771 nM | 462 nM | 1430 nM | 330 nM | 342 nM | 710 nM
CCc1cc(Nc2ncc(Br)c(Nc3ccc4nccnc4c3N(C)S(C)(=O)=O)n2)c(OC)cc1N1CCC(N2CCN(C)CC2)CC1 [Example A10, N-(6-((5-bromo-2-((5-ethyl-2-methoxy-4-(4-(4-methylpiperazin-1-yl)piperidin-1-yl)phenyl)amino)pyrimidin-4-yl)amino)quinoxalin-5-yl)-N-methylmethane sulfonamide] | 37 nM | 16 nM | 400 nM | 9 nM | 5 nM | 4 nM
CCc1cc(Nc2ncc(Cl)c(Nc3ccc(OC)c(OC)c3N(C)S(C)(=O)=O)n2)c(OC)cc1N1CCC(N2CCOCC2)CC1 [Example C32, N-(6-((5-chloro-2-((5-ethyl-2-methoxy-4-(4-morpholinopiperidin-1-yl)phenyl)amino)pyrimidin-4-yl)amino)-2,3-dimethoxyphenyl)-N-methylmethanesulfonamide] | 82 nM | 79 nM | 1920 nM | 191 nM | 176 nM | 46 nM
CCS(=O)(=O)Nc1c(Nc2nc(Nc3cc(C)c(N4CCC(N5CCN(C)CC5)CC4)cc3OC)ncc2Br)ccc2nccnc12 [Example A24, N-(6-((5-bromo-2-((2-methoxy-5-methyl-4-(4-(4-methylpiperazin-1-yl)piperidin-1-yl)phenyl)amino)pyrimidin-4-yl)amino)quinoxalin-5-yl)ethanesulfonamide] | 114 nM | 49 nM | 397 nM | 13 nM | 10 nM | 74 nM
CCCc1cc(Nc2ncc(Cl)c(Nc3ccc4nccnc4c3NS(C)(=O)=O)n2)c(OC)cc1N1CCC(N(C)C)CC1 [Example B12, N-(6-((5-chloro-2-((4-(4-(dimethylamino)piperidin-1-yl)-2-methoxy-5-propylphenyl)amino)pyrimidin-4-yl)amino)quinoxalin-5-yl)methanesulfonamide] | 87 nM | 29 nM | 431 nM | 36 nM | 19 nM | 104 nM
CCc1cc(Nc2ncc(Cl)c(Nc3ccc4nccnc4c3N(C)S(C)(=O)=O)n2)c(OC)cc1N1CCC(N2CCN(C)CC2)CC1 [Example A38, N-(6-((5-chloro-2-((5-ethyl-2-methoxy-4-(4-(4-methylpiperazin-1-yl)piperidin-1-yl)phenyl)amino)pyrimidin-4-yl)amino)quinoxalin-5-yl)-N-methylmethanesulfonamide] | 18 nM | – | 347 nM | 33 nM | 5 nM | 5 nM
COc1cc(N2CC3(CNC3)C2)ccc1Nc1ncc(Cl)c(Nc2ccc3nccnc3c2NS(C)(=O)=O)n1 [Example D7, N-(6-((5-chloro-2-((2-methoxy-4-(2,6-diazaspiro[3.3]heptan-2-yl)phenyl)amino)pyrimidin-4-yl)amino)quinoxalin-5-yl)methanesulfonamide] | > 2000 nM | – | > 2000 nM | > 2000 nM | > 2000 nM | > 2000 nM
